Experimental data as given in patent US4957909A, “Benzobicycloalkane derivatives as anticonvulsant neuroprotective agents” (American Home Products Corporation, priority 1990, dated 1990).

Tests used:
[1] = tested on: NMDA-induced neuronal release of norepinephrine; experiment: Inhibition of NMDA-induced [3H]norepinephrine release from rat hippocampal slices; type: cell-based; settings: 100 μM concentration, NMDA 150 μM
Experimental: In addition, the compounds involved herein were established as inhibitors of NMDA-induced neuronal release of norepinephrine by showing that (-)-13β-methylamino-3-methoxy-5α-methyl-5,6,7,8,9,10,11,12-octahydro-5,11-meth-anobenzocyclodecene inhibits 89 percent of the NMDA-inducednorepinephrine release at 100 μM concentration in the following standard test procedure:
Rat hippocampal slices (0.5 mm thick) were incubated (37° C.) for 30 minutes in oxygenated (bubbled 95% O2 /5% CO2), physiological medium (containing 117 mM NaCl, 4.7 mM KCl, 11.5 mM glucose, 1.2 mM MgCl2, 10 μM pargyline, 1 mM ascorbate, 1.2 mM NaH2 PO4 and 25 mM NaHCO3, adjusted to pH 7.4). The slices were then washed with 0.9% NaCl and incubated in physiological medium with 0.1 μM [^3 H] norepinephrine (30 minutes, 37° C.). The slices were again washed with 0.9% NaCl and then placed in tubes (borosilicate glass, 12×75 mm) containing 0.5 ml Mg^+2 -free physiological medium with 50 μM corticosterone and 10 μM desipramine added to minimize norepinephrine reuptake. Samples were analyzed for [^3 H] content at 5 minute intervals. After 75 minutes, the inhibitor drug was added. Fifteen minutes later NMDA was added to a concentration of 150 μM. The amount of [^3 H] released was measured by liquid scintillation spectroscopy. […]

[2] = tested on: male Swiss-albino mice (CD-1 strain); experiment: NMDA antagonism in mice: NMDA-induced generalized myoclonus and death, ED50 for survival; type: in vivo; settings: mice pretreated 30 min before NMDA 195 mg/kg i.p.
Experimental: The mice were pretreated with the representative test compounds followed thirty minutes later with NMDA (195 mg/kg, i.p., the ED90 dose for generalized myoclonus). The mice were then observed for 30 minutes, noting the latency of onset of generalized myoclonus (uncontrollable hind leg scratching or limbs and/or torso muscle jerking with loss of righting reflex) and death. From the latter, the ED50 for survival is determined.

SMILES: CNC1C2CCCCCC1(C)c1cc(OC)ccc1C2 (single isomer, unassigned; (-)) [(-)-13β-methylamino-3-methoxy-5α-methyl-5,6,7,8,9,10,11,12-octahydro-5,11-methanobenzocyclodecene]
- inhibition of NMDA-induced norepinephrine release [1]: 89%
- ED50 for survival ([2]; i.p.): 56 mg/kg
- ED50 for survival ([2]; p.o.): 97 mg/kg
